Data as given in patent publication US9440933B2, “Azole derivative, method for producing same, intermediate compound, and agricultural or horticultural chemical agent and industrial material protecting agent” (KUREHA CORPORATION, priority 2011, dated 2016).

How the values were obtained:
[1] = system: Rice bakanae disease-causing microbe (Gibberella fujikuroi); assay: Antimicrobial activity to various pathogenic microbes: G.f; details: 50 mg/L
Procedure: (§1) An inventive compound was dissolved in dimethylsulfoxide 2 ml. The solution 0.6 ml was added to a PDA medium (potato-dextrose-agar medium) 60 ml at around 60° C.
(§2) A flat plate containing a test microbe (wheat leaf blight-causing microbe) cultured separately was punched into pieces with a cork borer having a diameter of 4 mm and the circular plate obtained was placed on the flat plate media containing the chemical described above. The plates were cultured at 25° C. for 14 days after inoculation and the diameter of the microbial colony was determined. Hyphal expansion-inhibiting rate was calculated according to the following equation: R=100(dc−dt)/dc (wherein, R: hyphal expansion-inhibiting rate (%), dc: diameter of microbial colony on non-treated flat plate, dt: diameter of microbial colony on chemically-treated flat plate).
(§3) The results thus obtained were evaluated in 5 stages according to the criteria below:

[2] = system: Apple alternaria blotch-causing microbe (Alternaria alternata); assay: Antimicrobial activity to various pathogenic microbes: A.m; details: 50 mg/L
Procedure: as §1, §2
(§4) In this Test Example, the antimicrobial activity of the inventive compounds to various plant disease-causing fungi and industrial material-eroding microorganisms was studied by the method described in Example 1.
as §3
Apple alternaria blotch-causing microbe (Alternaria alternata) A.m

[3] = system: Barley scald-causing microbe (Rhynchosporium secalis); assay: Antimicrobial activity to various pathogenic microbes: R.sec; details: 50 mg/L
Procedure: as §1, §2, §4, §3
Barley scald-causing microbe (Rhynchosporium secalis) R.sec

[4] = system: Sclerotinia rot-causing microbe (Sclerotinia sclerotiorum); assay: Antimicrobial activity to various pathogenic microbes: S.s; details: 50 mg/L
Procedure: as §1, §2, §3
Sclerotinia rot-causing microbe (Sclerotinia sclerotiorum) S.s

[5] = system: wheat powdery mildew-causing microbes; assay: Controlling activity to wheat powdery mildew of seed treatment (pot test); format: in vivo, Erysiphe graminis f. sp tritici; details: 2 mg in DMSO applied to wheat seeds 1 g, 14 to 28 days after seeding
Procedure: Controlling activity to wheat powdery mildew was examined in a pot test. Each of the inventive compounds […]-53, and a comparative compound (1) was weighed in an amount of 2 mg and dissolved in DMSO (18 μl). The solution thus prepared was applied to wheat seeds 1 g in a vial, 8 wheat seeds were seeded in a 80 cm^2 pot. The wheat was grown, as water was supplied from blow, in a greenhouse where wheat powdery mildew-causing microbes are present abundantly. The incidence rate was determined and the controlling rate and additionally the controlling index calculated 14 to 28 days after seeding. The controlling rate was calculated and the wheat powdery mildew controlling index determined according to the following equation: Controlling rate=(1-Incidence rate in treated region/Incidence rate in non-treated region)×100(%) [table]

[6] = system: Gray mold-causing microbe (Botrytis cinerea); assay: Antimicrobial activity to various pathogenic microbes: B.c; details: 50 mg/L
Procedure: as §1, §2, §4, §3
Gray mold-causing microbe (Botrytis cinerea) B.c

[7] = system: Barley loose smut-causing microbe (Ustilago nuda); assay: Antimicrobial activity to various pathogenic microbes: U.n; details: 50 mg/L
Procedure: as §1
(§5) The plates were cultured at 25° C. for 14 days after inoculation and the diameter of the microbial colony was determined. Hyphal expansion-inhibiting rate was calculated according to the following equation: R=100(dc−dt)/dc (wherein, R: hyphal expansion-inhibiting rate (%), dc: diameter of microbial colony on non-treated flat plate, dt: diameter of microbial colony on chemically-treated flat plate).
as §3
Barley loose smut-causing microbe (Ustilago nuda) U.n

[8] = system: wheat leaf rust-causing microbe; assay: Wheat leaf rust-controlling activity (foliar spray, pot test); format: in vivo, Puccinia recondita; details: Concentration 25 g/ha; wettable powder sprayed on wheat (Norin No. 61), 9 to 14 days after inoculation
[9] = system: wheat leaf blight-causing microbe; assay: Antimicrobial activity to wheat leaf blight-causing microbe (PDA plate, hyphal expansion inhibition); format: cell-based, Septoria tritici; details: 336 h; Concentration 50 mg/L; PDA medium, 25° C., 14 days; read-out: Growth inhibition
Procedure: In this Test Example, antimicrobial activity of the inventive compounds to wheat leaf blight-causing microbe was determined and compared with that of the comparative compound (1).

[10] = system: Wheat fusarium blight-causing microbe (Fusarium graminearum); format: cell-based; details: 50 mg/L
[11] = system: wheat; assay: Damage to wheat (growth inhibition) by seed treatment (pot test); details: 2 mg in DMSO applied to wheat seeds 1 g, 14 to 28 days after seeding, larger index = smaller damage
[12] = system: Wheat glume blotch-causing microbe (Phaeosphaeria nodorum); assay: Antimicrobial activity to various pathogenic microbes: P.n; details: 50 mg/L
[13] = system: Rice blast-causing microbe (Pyricularia oryzae); format: cell-based; details: 50 mg/L
[14] = system: Wheat eye spot-causing microbe (Pseudocercoporella herpotrichoides); assay: Antimicrobial activity to various pathogenic microbes: P.h; details: 50 mg/L
Procedure: as §1, §5, §3
Wheat eye spot-causing microbe (Pseudocercoporella herpotrichoides) P.h

[15] = system: Cucumber Fusarium wilt-causing microbe (Fusarium oxysporum); assay: Antimicrobial activity to various pathogenic microbes: F.c; details: 50 mg/L
Procedure: as §1, §2, §3

Structure (SMILES)	Growth inhibition (hyphal expansion-inhibiting rate grade) G.f [1]	Growth inhibition (hyphal expansion-inhibiting rate grade) A.m [2]	Growth inhibition (hyphal expansion-inhibiting rate grade) R.sec [3]	Growth inhibition (hyphal expansion-inhibiting rate grade) S.s [4]	Controlling index Wheat powdery mildew [5]	Growth inhibition (hyphal expansion-inhibiting rate grade) B.c [6]	Growth inhibition (hyphal expansion-inhibiting rate grade) U.n [7]	Controlling index [8]	inhibition at 50 µg/mL [9]	Growth inhibition (hyphal expansion-inhibiting rate grade) F.g [10]	Damage index Growth inhibition [11]	Growth inhibition (hyphal expansion-inhibiting rate grade) P.n [12]	Growth inhibition (hyphal expansion-inhibiting rate grade) P.o [13]	Growth inhibition (hyphal expansion-inhibiting rate grade) P.h [14]	Growth inhibition (hyphal expansion-inhibiting rate grade) F.c [15]
CCOC(=O)[C@]1(C)CC[C@H](Cc2ccc(Cl)cc2)[C@@]1(O)Cn1cncn1 (racemic) [Compound I-133, ethyl-(1RS,2SR,3RS)-3-(4-chlorobenzyl)-2-hydroxy-1-methyl-2-(1H-1,2,4-triazol-1-ylmethyl)cyclopentanecarboxylate]	5 (hyphal expansion-inhibiting rate: 80% or more)	5 (hyphal expansion-inhibiting rate: 80% or more)	5 (hyphal expansion-inhibiting rate: 80% or more)	5 (hyphal expansion-inhibiting rate: 80% or more)	5 (Controlling rate: 40 or more)	5 (hyphal expansion-inhibiting rate: 80% or more)	5 (hyphal expansion-inhibiting rate: 80% or more)	5 (81 to 100)	> 80%	5 (hyphal expansion-inhibiting rate: 80% or more)	4 (1% or more and less than 20%)	5 (hyphal expansion-inhibiting rate: 80% or more)	5 (hyphal expansion-inhibiting rate: 80% or more)	5 (hyphal expansion-inhibiting rate: 80% or more)	5 (hyphal expansion-inhibiting rate: 80% or more)
C=CCOC(=O)[C@]1(C)CC[C@H](Cc2ccc(Cl)cc2)[C@@]1(O)Cn1cncn1 (racemic) [Compound I-134, allyl-(1RS,2SR,3RS)-3-(4-chlorobenzyl)-2-hydroxy-1-methyl-2-(1H-1,2,4-triazol-1-ylmethyl)cyclopentanecarboxylate]	5 (hyphal expansion-inhibiting rate: 80% or more)	5 (hyphal expansion-inhibiting rate: 80% or more)	5 (hyphal expansion-inhibiting rate: 80% or more)	5 (hyphal expansion-inhibiting rate: 80% or more)	5 (Controlling rate: 40 or more)	5 (hyphal expansion-inhibiting rate: 80% or more)	5 (hyphal expansion-inhibiting rate: 80% or more)	5 (81 to 100)	> 80%	5 (hyphal expansion-inhibiting rate: 80% or more)	3 (20% or more and less than 40%)	5 (hyphal expansion-inhibiting rate: 80% or more)	5 (hyphal expansion-inhibiting rate: 80% or more)	5 (hyphal expansion-inhibiting rate: 80% or more)	5 (hyphal expansion-inhibiting rate: 80% or more)
CCCOC(=O)[C@]1(C)CC[C@H](Cc2ccc(Cl)cc2)[C@@]1(O)Cn1cncn1 (racemic) [Compound I-136, n-propyl-(1RS,2SR,3RS)-3-(4-chlorobenzyl)-2-hydroxy-1-methyl-2-(1H-1,2,4-triazol-1-ylmethyl)cyclopentanecarboxylate]	5 (hyphal expansion-inhibiting rate: 80% or more)	5 (hyphal expansion-inhibiting rate: 80% or more)	5 (hyphal expansion-inhibiting rate: 80% or more)	5 (hyphal expansion-inhibiting rate: 80% or more)	5 (Controlling rate: 40 or more)	5 (hyphal expansion-inhibiting rate: 80% or more)	5 (hyphal expansion-inhibiting rate: 80% or more)	5 (81 to 100)	> 80%	5 (hyphal expansion-inhibiting rate: 80% or more)	4 (1% or more and less than 20%)	5 (hyphal expansion-inhibiting rate: 80% or more)	5 (hyphal expansion-inhibiting rate: 80% or more)	5 (hyphal expansion-inhibiting rate: 80% or more)	5 (hyphal expansion-inhibiting rate: 80% or more)
CC(C)OC(=O)[C@]1(C)CC[C@H](Cc2ccc(Cl)cc2)[C@@]1(O)Cn1cncn1 (racemic) [Compound I-137, isopropyl-(1RS,2SR,3RS)-3-(4-chlorobenzyl)-2-hydroxy-1-methyl-2-(1H-1,2,4-triazol-1-ylmethyl)cyclopentanecarboxylate]	5 (hyphal expansion-inhibiting rate: 80% or more)	5 (hyphal expansion-inhibiting rate: 80% or more)	5 (hyphal expansion-inhibiting rate: 80% or more)	5 (hyphal expansion-inhibiting rate: 80% or more)	5 (Controlling rate: 40 or more)	5 (hyphal expansion-inhibiting rate: 80% or more)	5 (hyphal expansion-inhibiting rate: 80% or more)	5 (81 to 100)	> 80%	5 (hyphal expansion-inhibiting rate: 80% or more)	5	5 (hyphal expansion-inhibiting rate: 80% or more)	5 (hyphal expansion-inhibiting rate: 80% or more)	5 (hyphal expansion-inhibiting rate: 80% or more)	5 (hyphal expansion-inhibiting rate: 80% or more)
